PubChem BioAssay (NCI)
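Briefly, cells in 96-well plates were exposed to five compound concentrations for 48 h, and endpoints were estimated by linear interpolation. Abbreviation: GI50, concentration required for 50% inhibition of growth. TGI: concentration producing complete growth inhibition.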

How the values were obtained:
Assay in all cases: NCI tumour cell line growth inhibition, 48 h
[1] = test system: PC-3 prostate
[2] = test system: DMS 114 small cell lung
[3] = test system: RXF-631 renal
[4] = test system: SN12K1 renal
[5] = test system: P388 leukemia
[6] = test system: P388/ADR leukemia
[7] = test system: LXFL 529 NSCLC

Compound: CC(CO)(CO)Nc1ncnc2ccccc12
- TGI [1]: > 100 µM

Compound: Fc1ccc(-c2nnc3sc(COc4ccccc4Cl)nn23)cc1Cl
- GI50 [1]: 30.7 µM
- TGI [1]: > 100 µM

Compound: Nc1nnc(N)n1NC(=O)C(=O)Nc1ccc([N+](=O)[O-])cc1
- TGI [2]: > 100 µM
- TGI [3]: > 100 µM

Compound: Cn1c(Sc2ccc(-c3cccnc3)n2C)ccc1-c1cccnc1
- TGI [1]: 31 µM

Compound: COc1cc2c(cc1Oc1ccc(OC)c3c1CC1c4c(cc(OC)c(OC)c4-3)CCN1C)CC1c3c(cc(OC)c(OC)c3-2)CCN1C (stereo not drawn)
- TGI [4]: 2.54 µM
- TGI [5]: 4.02 µM
- TGI [6]: 5.71 µM

Compound: COc1ccc(CC2c3cc(OC)c(OC)c(OC)c3CC[N+]2(C)C)cc1Oc1ccc(CC2c3cc4c(c(OC)c3CCN2C)OCO4)cc1 (stereo not drawn)
- TGI [1]: > 100 µM

Compound: C[n+]1ccc(-c2cc[n+](C)cc2)cc1
- TGI [2]: > 24.7 µM
- TGI [7]: > 53.3 µM

Compound: COc1cc(C)c2c(=O)c3c(oc2c1)C(=O)c1c(O)c(OC)cc(O)c1C3=O
- TGI [4]: 2.69 µM
- TGI [2]: 1.72 µM
- TGI [5]: > 50 µM
- TGI [6]: > 50 µM

Compound: O=C(O)C1=NNC(C(=O)O)=NN1
- TGI [7]: > 100 µM

Compound: COc1cc(O)c2c(c1)C(=O)c1cc(C)cc(O)c1C2=O
- TGI [2]: > 100 µM
- TGI [3]: > 100 µM
- TGI [7]: > 100 µM

Compound: CC(C)=CCC[C@](C)(O[C@@H]1O[C@H](CO)[C@@H](O)[C@H](O)[C@H]1O)[C@H]1CC[C@]2(C)[C@@H]1[C@H](O)C[C@@H]1[C@@]3(C)CC[C@H](O)C(C)(C)[C@@H]3[C@@H](O[C@@H]3O[C@H](CO)[C@@H](O)[C@H](O)[C@H]3O)C[C@]12C
- TGI [1]: > 100 µM

Compound: NC(=O)Nc1cc(O)ccc1N=Nc1ccc(S(=O)(=O)Nc2ccccn2)cc1
- TGI [2]: > 100 µM
- TGI [7]: > 100 µM
